Data as given in patent publication US10864168B2, “Bioactive delivery vehicles” (The Regents of the University of California, priority 2014, dated 2020).

Test system: inactivated yeast
Assay: Encapsulation of bioactives into inactivated yeast cells (conventional diffusion, vacuum infusion, pressure)
Format: physicochemical, Saccharomyces cerevisiae
Source text: Prior to encapsulation of bioactives, selected strains of both yeast and algal cells are inactivated with a chemical treatment. Chemical inactivation of yeast or algal cells stops the metabolic processes while preserving the structure and chemical composition of the cells. […] The concentration of ethanol is selected based on the results of the previous study. Briefly, 1 gm of yeast or algal cells pellet is suspended in the 35% ethanolic solution of the selected bioactive compound. […] We have determined the % ethanol to achieve sufficient encapsulation of the selected encapsulated bioactive compounds using both the vacuum and high pressure assisted encapsulation process. Yeast or algal cell samples suspended in the ethanolic solution with the bioactive compound are sealed in boilable vacuum bags (Prime Source) at 99% vacuum (Ultravac 250, Koch Equipment LLC). […] The sealed samples are covered with aluminum foil to prevent any photo-degradation of the bioactives and incubated at room temperature (25° C.) for 10 minutes. Samples are emptied into 50 mL centrifuge tubes, centrifuged at 2200 rpm for 10 minutes to pellet the cells and the pelleted cells are washed twice with ethanolic solution (35%) and then five times with excess water to remove unencapsulated bioactives. […] Samples are emptied into 50 mL centrifuge tubes, centrifuged to pellet the cells (2200 rpm for 10 minutes) and the pelleted cells are washed twice with ethanolic solution (35%) and then five times with excess water to remove unencapsulated bioactives. Briefly, yeast or algal samples in a 35% ethanolic solution of the selected bioactive compound are covered with a single layer of aluminum foil to prevent photolysis. Samples are then placed into a rotary incubator at 50° C. and 200 rpm for 24 hours. After removal from the incubator, cells are removed by centrifugation at 2000 rpm for 10 minutes. The supernatant is decanted to isolate the pelleted cells and the pelleted cells are washed as described above to remove unencapsulated bioactives. Cells are sonicated to disrupt the cellular structure. A methanol extraction is utilized to extract the encapsulated bioactives from the disrupted yeast or algal cells. 0.05 g of cells (wet basis) with encapsulated bioactives are sonicated to disrupt cellular structure and subsequently incubated with 1 mL methanol. Samples are then briefly vortexed and centrifuged at 14,000 rpm for 10 minutes. The concentration of bioactive compound dissolved in the organic phase is measured using UV-vis spectrophotometer. […] Measuring loading of these bioactive compounds in various emulsions and nanoparticles has been described. The encapsulation efficiency is determined as follows: [formula] where CE is the mass of extracted bioactive from the cells after encapsulation and CT is the amount of bioactive initially added to the cells. We have developed an innovative bioencapsulation process that provides rapid and efficient infusion of bioactives in isolated cells and lipid bodies. In this process, yeast or algal cells incubated in a solution containing bioactive were subjected to a vacuum (97% vacuum) or mild-high hydrostatic pressure (35-100 MPa) for ˜5-10 minutes. […] The results of these measurements were compared with the conventional process used for encapsulation of bioactive compounds in yeast cells.

COc1cc(/C=C/C(=O)CC(=O)/C=C/c2ccc(O)c(OC)c2)ccc1O [Curcumin, curcumin]
Mass of Encapsulated Bioactive in Yeast (100 mM PBS, pH = 6.5, Conventional Diffusion, saturated solution, 35% v/v ethanol): 0.064 mg/g | Mass of Encapsulated Bioactive in Yeast (100 mM PBS, pH = 6.5, HPP (200 MPa), saturated solution, 35% v/v ethanol): 0.242 mg/g | Mass of Encapsulated Bioactive in Yeast (100 mM PBS, pH = 6.5, Vacuum Infusion, saturated solution, 35% v/v ethanol): 0.305 mg/g | Mass of Encapsulated Bioactive in Yeast (2% Tween 20 in 100 mM Tris Buffer, pH = 8, Conventional Diffusion, saturated solution, 35% v/v ethanol): 0.292 mg/g | Mass of Encapsulated Bioactive in Yeast (2% Tween 20 in 100 mM Tris Buffer, pH = 8, HPP (200 MPa), saturated solution, 35% v/v ethanol): 0.415 mg/g | Mass of Encapsulated Bioactive in Yeast (2% Tween 20 in 100 mM Tris Buffer, pH = 8, Vacuum Infusion, saturated solution, 35% v/v ethanol): 0.483 mg/g | Mass of Encapsulated Bioactive in Yeast (Commercial Baker's Yeast, vacuum infused, 35% ethanol): 0.392 mg/g | Mass of Encapsulated Bioactive in Yeast (Conventional Diffusion, Single Loading): 0.134 mg/g | Mass of Encapsulated Bioactive in Yeast (S. Cerevisiae (68-115), lipogenesis Induced, vacuum infused, 35% ethanol): 0.260 mg/g | Mass of Encapsulated Bioactive in Yeast (S. Cerevisiae (68-115), lipogenesis Suppressed, vacuum infused, 35% ethanol): 0.238 mg/g | Mass of Encapsulated Bioactive in Yeast (Vacuum, Dual Loading (curcumin and fisetin added together)): 0.442 mg/g
